Source: article PMC5114558, “Reader domain specificity and lysine demethylase-4 family function” (Nature Communications, 2016)

Legend:
[1] = system: H3K23me3 antibody; assay: H3K23me3 antibody profiling on histone peptide microarray; conditions: scale from zero (no binding) to one (highest binding), Supplementary Fig. 5b-c
Procedure: Peptide arrays were handled with care and protected from light. All solutions were filtered before putting on the array. Assays were performed with a modified two-chamber simplex gasket (Intuitive Bioscience). After tightening the gasket onto the slide surface, the peptide array was blocked with blocking solution (1 × PBS, 0.05% Tween-20 pH 7.4, 1% BSA) at 4 °C overnight, to reduce nonspecific binding. (1) Reader binding: 10–50 nM purified recombinant HT-KDM4 DTDs were first reacted with excessive HaloTag ligand-biotin (Promega) in blocking solution on ice for 15 min and incubated on peptide array under mild rocking at 4 °C, 1 h. The slide was washed with PBS with 0.05% Tween (PBST) three times and incubated with 1:2,000 streptavidin-conjugated Alexa-Fluor647 (Invitrogen) in blocking solution at room temperature for 1 h. (2) Antibody binding: after blocking, 1:2,500–1:100 dilution H3K23me3 antibody in blocking solution were incubated with peptide microarray under mild rocking at 4 °C, 1 h. The slide was washed with PBST three times and incubated with 1:1,000 anti-rabbit IgG Alexa 647 (Cell Signaling) in blocking solution at room temperature for 1 h. […] Signal intensities were quantified by GenePix Pro 6.1 software (Molecular Devices). […] For each peptide species, an average was calculated from three replicate spots. […]

[2] = system: KDM4B full-length protein; assay: MS-based demethylation assay, full-length KDM4B; type: biochemical, human; conditions: 0.2 μM enzyme, 5–10 μM peptide, pH 7.5, 25 °C, MS read-out; single peptide substrates; Fig. 6a,b
Procedure: In a typical demethylase reaction, the assay mixture containing 50 mM Tris pH 7.5, 50 mM NaCl, 50 μM (NH4)2Fe(SO4)2, 0.5 mM ascorbic acid, 1 mM α-ketoglutarate and 0.2 μM full-length KDM4A–C (Active Motif) was mixed with 5–10 μM of trimethylated histone peptides (detailed sequence information in Supplementary Table 1). Each peptide concentration was quantified by measuring Abs280nm for peptides containing either tryptophan or tyrosine residue. After incubation of assay mixture at 25 °C for 10, 30 and 60 min time point, 10 μl of aliquot was transferred to a clean tube containing 5 μl of 5% formic acid to quench the reaction. Each quenched sample was treated with standard StageTip protocol using C18 extraction disk (Model 2215, Empore, 3 M) to remove excess salts and detergents in the reaction mixture. Each eluate from StageTip containing peptides was dried at a reduced pressure (vacuum centrifuge) and was re-suspended with 10 μl of 5% acetonitrile solution (0.1% formic acid). The 1 μl of the sample was injected at 0.7 μl min^−1 flow rate onto a Dionex Ultimate 3000 Nano LC system equipped with Atlantis dC18 NanoEase reverse-phase column (3 μm, 100 μm × 150 mm, Waters) and coupled to a hybrid quadrupole-orbitrap MS (Q-Exactive, Thermo Scientific). The peptide was eluted at 4–15 min retention time with a linear gradient of 2–35% acetonitrile (0.1% formic acid). All the solvents used for liquid chromatography MS were HPLC grade (Fisher). For each analysis, MS1 scan range of 300–1,100 m/z was used and data-dependent MS/MS was obtained to identify the site of demethylation. Each peptide peak and its area integration was performed on the XCalibur Qual Browser.

Substance | relative signal intensity with H3K23me3 antibody [1] | demethylation by full-length KDM4B [2]
H3K36me3: demethylation assay peptide, Tufts University Core Facility | less than 0.1 | consistent H3K36me3 demethylation
RKQLATK(Me3)AARK(Me3)SAPATGGW [H3K23me3K27me3, demethylation assay peptide, Peptide 2.0] | – | lack of measurable demethylation
RKQLATKAARK(Me3)SAPATGGW [H3K27me3 peptide, demethylation assay peptide, Peptide 2.0] | – | did not detect significant demethylation
